Source: patent US20240245707A1, “COMPOSITIONS FOR TREATING INSOMNIA AND USES THEREOF” (Zhejiang Jiachi Development Pharmaceuticals LTD., priority 2021, published 2024)
“And” between values parts separate entries of the source, which are not always exact repeats. Equal entries are not always repeated. “Also recorded” adds a separate entry of the source.

Experiments:
[1] = system: postmenopausal women having insomnia; test: Self-assessment of insomnia with Athens Insomnia Scale (AIS) before and after taking anordrin; type: in vivo, human
Description: Insomnia is usually measured using sleep disorder questionnaire (SDQ) such as Pittsburgh sleep quality index (PSQI), Epworth Sleeping Scale or the Athens Insomnia Scale (AIS), or using sleep quality monitor to count sleep dysfunction rating scale (SDRS). AIS is the one of popularly used SEQ. It is measured by assessing eight factors amongst which first five factors are related to nocturnal sleep and last three factors are related to daytime dysfunction. These are rated on a 0-3 scale and the sleep is finally evaluated from the cumulative score of all factors and reported as an individual's sleep outcome. Over the period of time, AIS is considered to be an effective tool in sleep analysis, and it is validated in various countries by testing it on local patients. A cut-off score of at least 6 on the AIS is used to establish the diagnosis of insomnia. See Soldatos C R, Dikeos D G, Paparrigopoulos T J (2002). “The diagnostic validity of the Athens Insomnia Scale”. J Psychosom Res. 55 (3): 263-7.
Individuals who have taken anordrin (less than 1 mg) were self-assessed for the presence and the extent of insomnia before and after they took anordrin. Specifically, thirteen postmenopausal women took anordrin for about two weeks to a few months. Their sleep quality were evaluated with Athens Insomnia Scale (AIS).

[2] = system: postmenopausal women with chronic insomnia; test: Phase II clinical trial of α-anordrin enteric-coated tablets, Athens Insomnia Scale (AIS) index, preliminary results; type: in vivo, human
Description: This Phase II clinical trial uses a randomized, double-blind, parallel-controlled design and is conducted in three clinical trial centers. A total of three drug groups are pre-set which are a) the 0.05 mg/day dosing group, b) the 0.1 mg/day dosing group, and c) the 0.15 mg/day dosing group as well as the placebo group. The drug intervention period is 8 weeks, and the drug intervention is followed up for 4 weeks. Primary efficacy endpoint includes vaginal detachment cell maturity index and dryness in postmenopausal women. Secondary efficacy endpoint includes quality in postmenopausal women, vaginal microecological index, vaginal pH in postmenopausal women, as well as the safety endpoint. The effectiveness and safety of different doses of α-anordrin tablets are preliminarily evaluated.
Group 1 (0.05 mg dose group): daily oral administration of one 0.05 mg α-anordrin enteric-coated tablet. Group 2 (0.1 mg dose group): daily oral administration of one 0.1 mg α-anordrin enteric-coated tablet. Group 3 (0.15 mg dose group): daily oral administration of one 0.15 mg α-anordrin enteric-coated tablet. Group 4: placebo group. […]

[3] = system: rat primary neuronal cells; test: ATP level of neuronal cells treated with anordrin (ATP assay kit); type: cell-based; settings: 10 nM anordrin, 24 hours, vs vehicle; FIG. 5
Description: See Chikahisa et al., Front Neurol. 2011; 2: 87.
Materials and equipment include cell culture medium, FBS and Charcoal stripped FBS, ATP assay kit (Thermofisher) and rat primary neuronal cells (Wuhan servisebio).
Primary neuronal cells (2×10^6) were grew in medium containing 10% FBS in 6 well plates for 24 hours. Then the medium was replaced with phenol red free medium contain 5% Charcoal stripped FBS for 24 hours. 10 nM anordrin or vechile were added in medium for 24 hours, and then cells were harvested. The fluorescence density of ATP was assayed using ATP assay kit following manufacture's instruction.

Q: For `C#C[C@@]1(OC(=O)CC)C[C@@H]2CC[C@@H]3[C@H](CC[C@@]4(C)[C@H]3CC[C@]4(C#C)OC(=O)CC)[C@@]2(C)C1` [anordrin, 2α, 17α-diethynyl-A-nor-5α-androstane-2β,17β-diol dipropionate], which “decrease of the average number of AIS” value ([1]; after vs before treatment, thirteen postmenopausal women) is on record?
A: 63%

Q: And the “postmenopausal women having insomnia that exhibited a significant improvement in sleeping” value ([1]; anordrin at various dosages, Example 1)?
A: 100%

Q: What about the “numbers of AIS for each patient after treatment (in words)” value ([1]; thirteen postmenopausal women, FIG. 3 and Table 1) of the same compound?
A: significantly decreased

Q: And the “Average # of AIS after treatment” value ([1]; thirteen postmenopausal women, average before treatment 17.4, STDEV 1.2, p value <0.0001)?
A: 6.3

Q: And the “AIS number (after treatment)” value ([2]; one patient per row, 0.05 mg/day oral, before treatment 12-19, preliminary results)?
A: 4 and 5 (2×)

Q: What about the “sleeping quality after treatment (in words)” value ([2]; three patients, 0.05 mg/day) of the same compound?
A: significantly improved sleeping quality

Q: And the “ATP level of neuronal cells” value [3]?
A: significantly increased; also recorded: induces ATP surge
